{"source": "patent US20100254940A1", "about": "“Compositions and Methods for Regulating an Immune Response in a Subject” (INNATE PHARMA, S.A., priority 2002, published 2010)", "key": {"[1]": {"tested_on": "TNFα", "experiment": "Serum TNFα by ELISA after BrHPP injection in cynomolgus monkeys", "format": "in vivo, cynomolgus monkeys (M. fascicularis)", "description": "Serum cytokines (TNFα and INFg) were detected and quantified with the BIOSOURCE Cytoscreen™ ELISA monkey TNFa and Cytoscreen™ ELISA monkey INFg respectively (purchased from CliniSciences, Montrouge, France) according to the manufacturer's instructions.\nSamples of sera were collected from group 2 animals during the first dose range assay (0 to 80 mg/kg) just before injection then 1 and 4 hours post injection, and assayed by ELISA specific for TNFa and IFNg.\nThe objective of this GLP study was to explore further the pharmaco-dynamic properties of Phosphostim (BrHPP, 200 mg; GMP batch) alone and in combination with IL-2 following several i.v. administrations to cynomolgus monkeys. In particular, this study was planned to evaluate: • A dose-effect relationship between Phosphostim injection and γδ T cell peripheral amplification; • The pharmaco-dynamic effect of a second, third and up to fifth administration of Phosphostim in male and female animals; • The functionality of in vivo induced γδ T cells, by dosing systemic cytokines after Phosphostim treatment; • The effect of treatment with IL-2 alone and to validate the selected dose of 0.6 million IU/day/animal.\nPhosphostim was administered i.v., as slow infusions (50 ml in 30 minutes), at various dose levels to five groups of two animals (one male+one female). Males received two successive injections of BrHPP (Day 0 and Day 22) before sacrifice and females four injections (Days 0, 22, 52 and 84). Two females, selected upon their level of response to the 4th treatment, received a supplementary injection of BrHPP alone at Day 91, during γδ cell peripheral increase, for systemic cytokine dosages."}, "[2]": {"tested_on": "786-0 cells lines", "experiment": "Nod-SCID/tumor model, human PBMC stimulated in vivo with BrHPP", "parameters": "species or system Nod-SCID mice", "description": "Preliminary studies to set up the Nod-SCID/tumor and to stimulate human MNC with BrHPP in the Nod-SCID were carried out as follows: • The following renal tumor cells lines purchased from the ATCC (786-0, Kaci1, G401 and G402) were used for the establishment of the model. 786-0 and Kaci-1 cells lines were renal clear cell carcinoma (RCC), G401 rhabdoid and G402 leimyeloblastoma.\n8-12 weeks Nod-SCID mice were used as recipient of the cells lines.\nEach mouse received, at the left flank's upper part, 2-5×10^6 cells by subcutaneous injection at day D0. The appearance and the growing of the tumors evolution were checked weekly.\nThe tumors appearance and development depend on the cell line and on the number of engrafted cells. For example, after the engraftment of 2×10^6 cells, 3 to 4 weeks were needed for the 786-O and Kac1-1, while 2 weeks were needed for the G401 and 402. • At day 0, mice were injected IP 50*10^6 PBMC (collected from healthy donor, etablissement français du sang), then stimulated (IP) 40 mg/kg BrHPP mixed with 1000 IU of IL2. At D5 and each every three days, mice were treated with 500 UI of IL2. Human γδ T cells were developed in the peritoneal cavity of Nod-SCID/human (hu) BrHPP treated mice.\nTaking advantage of the tumoral development in the Nod-SCID mice and the in vivo stimulation of the human γδ T cells, the anti-tumoral effect of the γδ T cells was studied in vivo. The tumoral model was established by engrafting 2×10^6 of 786-0 cells lines, three weeks later, when the volume of the solid tumor reached more than >30 mm3 (calculated with the formula A^2×B/2 where A and B represent respectively the length and breadth of the tumor). Mice, randomized, received IP PBMC and treated for the stimulation with BrHPP. Several groups were constituted:\nA—Negative control group: Mice in the group received only tumoral cell line\nB—PBMC group: Mice were injected IP with 50×10^6 PBMC\nC—Study group: Mice after receiving the 50×10^6 PBMC were treated with BrHPP and\nFor each group, parameters were observed as follows: • Weekly check of the tumor size and volume • Weekly phenotype of human T cells in the peritoneal cavity and blood collected cells for the percentage of human γδ T cells versus ab human T cells. • Serological TNF and INF check • At sacrifice: • 1—phenotype study of the homing of human leukocytes cells and their phenotype (IP, liver, lung, spleen, bone morrow, blood, thymus and tumor). • 2—Immunohistochemistry (IHC) study in the tumor of the recipient mice."}, "[3]": {"experiment": "Two week repeated dose toxicity study in rats, i.v. BrHPP", "format": "in vivo, Sprague-Dawley rats", "description": "The objective of this GLP study was to evaluate the potential toxicity of BrHPP following daily i.v. administration in rats for two weeks. 116 Sprague-Dawley rats were allocated into four groups: one control group (Group 1) with 10 males and 10 females and three treatment groups (Groups 2 to 4) with 10 males and 10 females. Group 2, 3 and 4 were administered respectively 80, 150 and 300 mg/kg/day (respectively 48, 90 and 180 mg/kg in anionic form equivalent) of BrHPP. […] Satellite animals were allocated for toxico-kinetics purposes.\nBrHPP was administered daily by slow intravenous injection (0.4 mL/min) as a solution in sterile water for injection and Ringer lactate at the dose levels of 80, 150 or 300 mg/kg/day. The control group received the vehicle (together with 1% sodium to reach an osmolarity similar to the high-dose group dosage forms) under the same experimental conditions. A constant dosage-volume of 5 mL/kg was used.\nThe animals were checked daily for mortality and clinical signs. Body weight and food consumption were recorded twice a week. Opthalmologic examination was performed before and at the end of the treatment period. Blood samples for determination of levels of BrHPP were taken from satellite animals on Day 1 and at the end of the treatment period. Vaginal lavage was performed in females during pre-treatment and at the end of the treatment period for monitoring of estrous cycle. Hematological, blood biochemical and urinalysis investigations were performed on all principal animals at the end of week 2. On completion of the study, all animals were killed and subjected to a macroscopic post mortem examination and specified organs were weighed and preserved. Microscopic examination was performed on selected tissues from animals of the control and the 300 mg/kg/day groups."}, "[4]": {"tested_on": "γδ T cells", "experiment": "Supplementary pharmaco-dynamics studies, consecutive injections of BrHPP in male cynomolgus monkeys", "format": "in vivo", "description": "We have thus performed other non-GLP pharmaco-dynamics studies in male cynomolgus monkeys in order to further document the features of in vivo γδ T cells response to consecutive injections of BrHPP, varying either the dose or the time-laps between injections.\nIn vivo amplification was assessed after 4 successive injections of 20 or 80 mg/kg Phosphostim®, 4 or 8 weeks apart."}}, "data": [{"substance": "3-(bromomethyl)-3-butanol-1-yl-diphosphate [BrHPP]", "values": [{"measurement": "serum level of TNFa", "setting": "[1]; 80 mg/kg, 4 hours post BrHPP injection", "value": "not further detectable"}, {"measurement": "TNFα in the sera", "setting": "[1]; 80 mg/kg, one hour after injection", "value": "detectable"}, {"measurement": "TNFa level", "setting": "[1]; fifth injection 80 mg/kg without IL2, 4 hours post injection", "value": "undetectable at 4 hours post injection"}, {"measurement": "TNFa in the sera", "setting": "[1]; fifth injection 80 mg/kg without IL2 at peak after fourth injection", "value": "detectable"}, {"measurement": "mice in which the tumor was not totally cleared", "setting": "[2]; PBMC + BrHPP + IL2", "value": "4 of 10"}, {"measurement": "tumor size", "setting": "[2]; PBMC/BrHPP (40 mg/kg IP) and IL2 treated group", "value": "from day 7 onwards the tumor size shrank"}, {"measurement": "tumor growth where tumor not totally cleared", "setting": "[2]; after 12 weeks", "value": "tumor growth was stopped and the tumor size stayed stable"}, {"measurement": "human γδ cells in the tumor", "setting": "[2]; at sacrifice, 4 weeks", "value": "human γδ cells were present only in the BrHPP treated group"}, {"measurement": "reappearance of tumor", "setting": "[2]; mice where the tumor was cleared, 12 weeks after the treatment", "value": "no reappearance of new tumor was observed"}, {"measurement": "human γδ T cell presence in the peritoneal cavity", "setting": "[2]; weekly IP phenotype", "value": "human γδ T cell presence only in the BrHPP treated mice"}, {"measurement": "microscopic examination, other organs and tissues", "setting": "[3]; 300 mg/kg/day", "value": "No relevant findings were seen in other organs and tissues"}, {"measurement": "opthalmologic findings", "setting": "[3]; 300 mg/kg/day, end of treatment", "value": "No relevant opthalmologic findings"}, {"measurement": "mortality", "setting": "[3]; 80, 150, 300 mg/kg/day i.v. two weeks", "value": "No unscheduled death occurred"}, {"measurement": "clinical signs during dosing", "setting": "[3]; 150 and 300 mg/kg/day", "value": "Vocalization during dosing was noted on many occasions"}, {"measurement": "microscopic examination, tail vein", "setting": "[3]; both control and BrHPP-treated, attributed to mechanical injury", "value": "slight changes were observed in the tail vein"}, {"measurement": "macroscopic post-mortem examination", "setting": "[3]; end of treatment", "value": "No relevant findings were noted"}, {"measurement": "organ weights", "setting": "[3]; end of treatment", "value": "No relevant differences in organ weights from controls"}, {"measurement": "hematological, biochemical or urinary parameter", "setting": "[3]; end of week 2", "value": "No changes of toxicological significance"}, {"measurement": "mean body weight gain", "setting": "[3]; females", "value": "Dose-related higher mean body weight gain"}, {"measurement": "NOAEL in anionic form equivalent", "setting": "[3]; highest tested dose", "value": 180, "unit": "mg/kg"}, {"measurement": "No Observed Adverse Effect Level (NOAEL)", "setting": "[3]; highest tested dose", "value": 300, "unit": "mg/kg/day"}, {"measurement": "in vivo amplification of γδ cells", "setting": "[4]; 4 successive injections of 20 or 80 mg/kg Phosphostim, 4 or 8 weeks apart", "value": "repeated increases of γδ cells"}, {"measurement": "γδ cell rate and absolute count in the periphery", "setting": "[4]; at least 3 successive injections, 8 weeks apart, 20 or 80 mg/kg, males", "value": "significant increases"}, {"measurement": "γδ cell rate and absolute count", "setting": "[4]; at least 4 successive injections, 4 weeks apart, 20 mg/kg, males", "value": "detectable increases"}]}]}
